Patent US20210085711A1 (Japan Tobacco Inc., priority 2017, published 2021)

Experiments:
[1] = test system: patients with hypermenorrhea and/or patients with hypermenorrhea-associated gynecologic diseases (iron-deficiency anemia patients); experiment: Phase II clinical trial of JTT-751: serum ferritin value; format: in vivo, human
Protocol: (§1) This test was a three-stage safety and efficacy clinical trial at multi-facilities. The first stage was a pre-observation period (Day −40 to Day −1), the second stage was an administration period (Day 1 to Day 48) (efficacy and safety evaluation period), and the third stage was a post-observation period (Day 49 to Day 63) (efficacy and safety evaluation period). The safety evaluation and efficacy evaluation were performed by multi-facility collaboration, placebo control, random allocation, double-blind trial, and parallel group comparison test.
(1) Japanese patients who are 20 or more and less than 65 years old at the time of agreement and can visit an outpatient clinic (2) Patients who have an Hb value (measured using HemoCue® Hb 201 DM analyzer in the institute of clinical practice) of 7.0 g/dL or more and less than 11.0 g/dL on both the observation start date and Week 0, and the difference between the two days is 1.0 g/dL or less (3) Patients with a TIBC of 360 μg/dL or more or a serum ferritin value of less than 12 ng/mL on the observation start date
The administration period of the trial drug is seven weeks which starts from the next day of the Week 0 visit to the day before the Week 7 visit, provided that the trial drug is not taken on the scheduled Week 3 visit.
(2) Subsidiary evaluation items 1) Erythrocyte-related examination values and amount of change from Week 0 at each observation date 2) Iron-related test values and amount of change from Week 0 at each observation date 3) Achievement rate of target Hb value (female; 12.0 g/dL or more, male; 13.0 g/dL or more) at each observation date 4) Achievement rate of 1.0 g/dL or more and achievement rate of 2.0 g/dL or more in Hb value improvement from Week 0 at each observation date 5) Average daily change of Hb value from Week 0 to each observation date
The blood hemoglobin value (Hb), the serum iron level, the serum ferritin value, the total iron-binding capacity (TIBC) and the transferrin saturation rate (TSAT), and the mean corpuscular volume (MCV) were each examined at the observation start date, Week 0, Week 3, Week 7, the end of administration and the consultation at nine weeks after Week 0; the hepcidin concentration (Hepcidin 25) and the serum soluble transferrin receptor concentration (sTfR) were each examined on Week 0, Week 3 and Week 7 and at the end of administration; and the C-terminal FGF23 value (cFGF23) and the intact FGF23 value (iFGF23) were each examined on Week 0 and Week 7 and at the end of administration.

[2] = test system: patients with hypermenorrhea-associated gynecologic diseases; experiment: Phase II clinical trial of JTT-751: safety evaluation (harmful events) in combined use with medicaments affecting the amount of menstrual bleeding; format: in vivo, human; conditions: combined with carbazochrome sodium sulfonate, transamin or ethynylestradiol combinations
Protocol: as §1, with “test. […]” for “test.”
(1) Regarding the subjective symptoms and objective findings, when “expression of new abnormality” was observed between the start of the trial drug administration and nine weeks after Week 0 or at the end of examination after discontinuation as compared to before the start of the trial drug administration. […] (3) Regarding clinical examination, vital sign and standard 12-induced electrocardiogram, when the principal investigator or subinvestigator determined that an abnormality newly recognized between the start of the trial drug administration and nine weeks after Week 0 or at the end of examination after discontinuation, or aggravation of abnormality observed from before the start of the trial drug administration was a clinical problem. […]

[3] = 250 mg/day, 9 weeks after Week 0
[4] = 250 mg/day, End of administration
[5] = 250 mg/day, Week 3 (Week 0 not given)
[6] = 500 mg/day, 9 weeks after Week 0
[7] = 500 mg/day, End of administration
[8] = 500 mg/day, Week 3 (Week 0 not given)
[9] = 1000 mg/day, 9 weeks after Week 0
[10] = 1000 mg/day, End of administration
[11] = 1000 mg/day, Week 3 (Week 0 not given)
[12] = 1500 mg/day, 9 weeks after Week 0
[13] = 1500 mg/day, End of administration
[14] = 1500 mg/day, Week 3 (Week 0 not given)

Ferric citrate [JTT-751]
Ferritin, Mean [1, 3]: 2.88 ng/mL | Ferritin, Median [1, 3]: 2.60 ng/mL | Ferritin, Mean [1, 4]: 11.38 ng/mL | Ferritin, Median [1, 4]: 11.45 ng/mL | Ferritin, Mean [1, 5]: 11.16 ng/mL | Ferritin, Median [1, 5]: 7.70 ng/mL | Ferritin, Mean ([1]; 250 mg/day, Week 7): 11.38 ng/mL | Ferritin, Median ([1]; 250 mg/day, Week 7): 11.45 ng/mL | Ferritin, Mean [1, 6]: 4.28 ng/mL | Ferritin, Median [1, 6]: 3.60 ng/mL | Ferritin, Mean [1, 7]: 16.12 ng/mL | Ferritin, Median [1, 7]: 14.30 ng/mL | Ferritin, Mean [1, 8]: 15.26 ng/mL | Ferritin, Median [1, 8]: 12.40 ng/mL | Ferritin, Mean ([1]; 500 mg/day, Week 7): 16.12 ng/mL | Ferritin, Median ([1]; 500 mg/day, Week 7): 14.30 ng/mL | Ferritin, Mean [1, 9]: 7.51 ng/mL | Ferritin, Median [1, 9]: 7.20 ng/mL | Ferritin, Mean [1, 10]: 17.02 ng/mL | Ferritin, Median [1, 10]: 16.30 ng/mL | Ferritin, Mean [1, 11]: 26.96 ng/mL | Ferritin, Median [1, 11]: 23.20 ng/mL | Ferritin, Mean ([1]; 1000 mg/day, Week 7): 17.02 ng/mL | Ferritin, Median ([1]; 1000 mg/day, Week 7): 16.30 ng/mL | Ferritin, Mean [1, 12]: 5.83 ng/mL | Ferritin, Median [1, 12]: 5.35 ng/mL | Ferritin, Mean [1, 13]: 17.38 ng/mL | Ferritin, Median [1, 13]: 16.60 ng/mL | Ferritin, Mean [1, 14]: 20.43 ng/mL | Ferritin, Median [1, 14]: 22.20 ng/mL | Ferritin, Mean ([1]; 1500 mg/day, Week 7): 17.38 ng/mL | Ferritin, Median ([1]; 1500 mg/day, Week 7): 16.60 ng/mL | serum ferritin value (printed: serum iron level), increased to a normal value ([1]; continuous administration from Week 0 to Week 3): 12 to 30 ng/mL | harmful event caused by combined use with medicaments affecting the amount of menstrual bleeding [2]: no harmful event caused by the combined use was reported
